We go through one molecule from ChEMBL document CHEMBL4414648, “Novel Benzohydroxamate-Based Potent and Selective Histone Deacetylase 6 (HDAC6) Inhibitors Bearing a Pentaheterocyclic Scaffold: Design, Synthesis, and Biological Evaluation” (J Med Chem, 2019).

Activity calls are given as the source filed them. The rule behind the calls is not given here. A value given as a limit tells only on which side of the number the result lay.

For series [1], the target named is T1, Protein deacetylase HDAC6 (Homo sapiens) (UniProt Q9UBN7).
T1 sequence (whole entry): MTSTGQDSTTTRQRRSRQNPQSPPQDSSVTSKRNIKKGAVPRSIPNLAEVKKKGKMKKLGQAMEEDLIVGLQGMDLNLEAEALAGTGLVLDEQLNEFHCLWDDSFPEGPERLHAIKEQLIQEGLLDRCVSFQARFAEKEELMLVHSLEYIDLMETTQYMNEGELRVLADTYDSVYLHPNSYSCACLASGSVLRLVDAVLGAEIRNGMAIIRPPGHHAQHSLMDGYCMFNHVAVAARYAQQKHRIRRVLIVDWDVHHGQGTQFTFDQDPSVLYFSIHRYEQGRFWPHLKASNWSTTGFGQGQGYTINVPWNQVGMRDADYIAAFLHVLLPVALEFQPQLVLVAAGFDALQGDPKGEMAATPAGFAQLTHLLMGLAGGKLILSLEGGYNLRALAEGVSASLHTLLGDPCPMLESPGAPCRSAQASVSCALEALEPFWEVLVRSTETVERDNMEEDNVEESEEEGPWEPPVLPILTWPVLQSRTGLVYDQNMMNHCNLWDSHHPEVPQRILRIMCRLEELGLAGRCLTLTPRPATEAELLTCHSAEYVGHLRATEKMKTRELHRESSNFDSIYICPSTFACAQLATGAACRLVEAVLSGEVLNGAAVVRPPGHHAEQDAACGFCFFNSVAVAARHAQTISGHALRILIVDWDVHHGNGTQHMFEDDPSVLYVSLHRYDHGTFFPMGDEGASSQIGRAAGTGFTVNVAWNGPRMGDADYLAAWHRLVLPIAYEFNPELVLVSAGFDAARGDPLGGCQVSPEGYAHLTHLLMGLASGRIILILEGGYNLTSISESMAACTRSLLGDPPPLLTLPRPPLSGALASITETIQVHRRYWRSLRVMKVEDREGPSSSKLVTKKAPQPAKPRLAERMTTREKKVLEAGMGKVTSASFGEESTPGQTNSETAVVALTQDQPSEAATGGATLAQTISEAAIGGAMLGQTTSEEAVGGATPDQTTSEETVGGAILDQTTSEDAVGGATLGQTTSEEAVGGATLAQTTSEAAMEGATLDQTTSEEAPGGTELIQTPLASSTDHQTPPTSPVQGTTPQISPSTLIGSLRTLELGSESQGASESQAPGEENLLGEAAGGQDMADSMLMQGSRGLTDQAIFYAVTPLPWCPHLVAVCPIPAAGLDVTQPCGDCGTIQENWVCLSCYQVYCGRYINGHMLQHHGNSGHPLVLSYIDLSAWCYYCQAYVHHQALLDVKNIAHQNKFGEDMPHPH
Kind of series: Inhibition of HDAC6 in HEK293 cells harboring human Foxp3 assessed as induction of Foxp3 hyperacetylation in whole cell lysates at 500 nM incubated for 6 hrs by SDS-PAGE based Western blot analysis. The format is subcellular. The conditions noted are these: Lysate. In general terms: In western blotting, separated proteins are transferred to a membrane and probed.

Series [2] in a line: Toxicity in C57BL/6 mouse assessed as induction of kyphosis up to 50 mg/kg, ip administered for 5 days/week for two cycles and measured daily starting from day 1. The conditions noted are these: in vivo, 120 h. The format is organism-based.
Series [3] addresses T2, Protein deacetylase HDAC6 (Mus musculus) (UniProt Q9Z2V5).
T2 sequence (whole entry): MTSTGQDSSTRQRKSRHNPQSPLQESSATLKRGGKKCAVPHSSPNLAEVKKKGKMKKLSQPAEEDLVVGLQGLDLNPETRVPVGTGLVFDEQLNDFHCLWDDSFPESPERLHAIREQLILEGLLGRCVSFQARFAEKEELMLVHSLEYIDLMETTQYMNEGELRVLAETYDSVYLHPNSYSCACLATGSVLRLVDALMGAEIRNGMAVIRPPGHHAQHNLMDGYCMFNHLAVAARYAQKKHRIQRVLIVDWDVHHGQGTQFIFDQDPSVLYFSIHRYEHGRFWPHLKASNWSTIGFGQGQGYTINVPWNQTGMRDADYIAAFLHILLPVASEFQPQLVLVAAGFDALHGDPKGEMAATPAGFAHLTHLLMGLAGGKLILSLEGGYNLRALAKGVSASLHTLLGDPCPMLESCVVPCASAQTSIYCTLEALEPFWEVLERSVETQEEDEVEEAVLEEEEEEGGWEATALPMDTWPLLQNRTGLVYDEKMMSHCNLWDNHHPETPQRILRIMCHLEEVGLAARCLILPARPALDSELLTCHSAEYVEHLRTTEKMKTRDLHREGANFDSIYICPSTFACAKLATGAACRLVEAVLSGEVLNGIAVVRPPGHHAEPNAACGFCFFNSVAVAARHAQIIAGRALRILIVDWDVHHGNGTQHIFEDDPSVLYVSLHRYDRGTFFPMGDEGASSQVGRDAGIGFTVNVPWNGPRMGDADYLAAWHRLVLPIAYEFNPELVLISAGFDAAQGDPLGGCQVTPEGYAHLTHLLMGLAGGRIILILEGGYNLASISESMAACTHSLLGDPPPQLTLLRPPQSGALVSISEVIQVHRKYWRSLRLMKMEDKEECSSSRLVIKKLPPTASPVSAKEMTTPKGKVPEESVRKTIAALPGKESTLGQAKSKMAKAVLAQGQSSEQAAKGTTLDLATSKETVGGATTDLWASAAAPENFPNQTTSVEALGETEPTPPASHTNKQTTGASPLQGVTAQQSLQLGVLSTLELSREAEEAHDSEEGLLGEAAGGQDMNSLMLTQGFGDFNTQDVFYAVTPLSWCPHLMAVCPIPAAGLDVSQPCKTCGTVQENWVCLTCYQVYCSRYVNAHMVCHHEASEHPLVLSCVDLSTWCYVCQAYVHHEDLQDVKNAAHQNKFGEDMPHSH
Kind of series: Inhibition of HDAC6 in C57BL/6 mouse regulatory T cells assessed as increase in Treg-mediated suppression of anti-CD3 induced CD4+ cell division at 1 uM after 72 hrs in presence mitomycin-treated APC by CFSE dye based flow cytometric assay relative to control. On the technique in general: In flow cytometry, cells or beads pass a laser one at a time.

A short description of series [4]: Toxicity in C57BL/6 mouse assessed as effect on body temperature up to 50 mg/kg, ip administered for 5 days/week for two cycles and measured daily starting from day 1. In kind it is organism-based. Conditions: in vivo, 120 h.
In the next series the test system is Mus musculus. Briefly: In vivo inhibition of HDAC in C57BL/6 mouse assessed as increase in acetylated-histone H3 level in spleen nuclear protein extracts at 30 mg/kg, ip measured after 60 mins by sandwich ELISA relative to control. The format is organism-based. The conditions noted are these: 1 h. (ELISA stands for enzyme-linked immunosorbent assay.)
A further series has as its system 697. Kind of series: Cytotoxicity against human 697 cells after 48 hrs by CellTiter 96 aqueous one solution assay. The conditions noted are these: Homo sapiens, 697, 48 h. The format is cell-based.
Series [5] can be described thus: Toxicity in C57BL/6 mouse assessed as induction of diarrhea up to 50 mg/kg, ip administered for 5 days/week for two cycles and measured daily starting from day 1. The format is organism-based. The conditions noted are these: in vivo, 120 h.
The nature of series [6]: Inhibition of C57BL/6 mouse effector T cells proliferation at 500 nM after 72 hrs in absence of regulatory T cells by CFSE dye based flow cytometric assay relative to control.
Series [7] in a line: Toxicity in C57BL/6 mouse assessed as effect on platelet level at 10 mg/kg, ip administered for 5 days/week for two cycles and measured 60 mins post last dose by cell counter method relative to control. In kind it is organism-based. The conditions noted are these: in vivo, 1 h.

In the case of `Cn1c(Sc2ccc(C(=O)NO)cc2)nnc1-c1cccs1`, the inhibition (usually the drop in the measured response relative to a control, in per cent) in [1] is “Active”. For the same molecule, the Activity result was “Non-Toxic” in series [2], “Non-Toxic” in [4], “Non-Toxic” in series [5] and -11% in series [7]. Also, the fold change (FC) in [3] amounted to 3.4; with Mus musculus it was 3. For the same molecule, the IC50 (commonly the concentration needed to halve the response being measured) with 697 was over 1 µM. In addition, the inhibition at 72 h, 0.5 µM in series [6] is under 0.5%.
